Source: patent US9060971B2, “Combination pharmaceutical agents as inhibitors of HCV replication” (Enanta Pharmaceuticals, Inc., priority 2010, dated 2015)
pEC50: −log10 of the molar value.

Tested on: HCV 1b genotype replicon
Assay: HCV replicon drug screening assay (quantitative RT-PCR or luciferase), genotype 1b
Format: cell-based
Conditions: Hepatitis C virus; HCV 1b genotype replicon; quantitative RT-PCR or luciferase assay; read-out: Genotype-1b replicon EC50 Range
Source text: HCV replicon cell lines (kindly provided by R. Bartenschlager) isolated from colonies as described by Lohman et. al. (Lohman et al. (1999) Science 285: 110-113, expressly incorporated by reference in its entirety) and used for all experiments. The HCV replicon has the nucleic acid sequence set forth in EMBL Accession No.: AJ242651, the coding sequence of which is from nucleotides 1801 to 8406.
The coding sequence of the published HCV replicon was synthesized and subsequently assembled in a modified plasmid pBR322 (Promega, Madison, Wis.) using standard molecular biology techniques. One replicon cell line (“SGR 11-7”) stably expresses HCV replicon RNA which consists of (i) the HCV 5′UTR fused to the first 12 amino acids of the capsid protein, (ii) the neomycin phosphotransferase gene (neo), (iii) the IRES from encephalomyocarditis virus (EMCV), and (iv) HCV NS2 to NS5B genes and the HCV 3′UTR. Another replicon cell line (“Huh-luc/neo-ET”) described by Vrolijk et. al. (Vrolijk et. al. (2003) Journal of Virological Methods 110:201-209, expressly incorporated by reference in its entirety) stably expresses HCV replicon RNA which consists of (i) the HCV 5′UTR fused to the first 12 amino acids of the capsid protein, (ii) the firefly luciferase reporter gene, (iii) the ubiquitin gene, (iv) the neomycin phosphotransferase gene (neo), (v) the IRES from encephalomyocarditis virus (EMCV), and (vi) HCV NS3 to NS5B genes that harbor cell culture adaptive mutations (E1202G, T12801, K1846T) and the HCV 3′UTR.
These cell lines are maintained at 37° C., 5% CO2, 100% relative humidity in DMEM (Cat#11965-084, Invitrogen), with 10% fetal calf serum (“FCS”, Invitrogen), 1% non-essential amino acids (Invitrogen), 1% of Glutamax (Invitrogen), 1% of 100× penicillin/streptomycin (Cat#15140-122, Invitrogen) and Geneticin (Cat#10131-027, Invitrogen) at 0.75 mg/ml or 0.5 mg/ml for 11-7 and Huh-luc/neo-ET cells, respectively.
EC50 values of single agent compounds and combinations were determined by HCV RNA detection using quantitative RT-PCR, according to the manufacturer's instructions, with a TAQMAN® One-Step RT-PCR Master Mix Reagents Kit (Cat#AB 4309169, Applied Biosystems) on an ABI Model 7500 thermocycler. The TaqMan primers to use for detecting and quantifying HCV RNA are 5′-GCTGCGGCCTGTCGAGCT-3′ (SEQ ID NO: 1), 5′-CAAGGTCGTCTCCGCATAC-3′ (SEQ ID NO: 2) and the probe 5′-FAM-[…]-BHQ-3′ (SEQ ID NO: 3) obtained from Integrated DNA Technologies. HCV RNA is normalized to GAPDH RNA levels in drug-treated cells, which is detected and quantified using the Human GAPDH Endogenous Control Mix (Applied Biosystems, AB 4310884E). Total cellular RNA is purified from 96-well plates using the RNAqueous 96 kit (Ambion, Cat#AM1812). Chemical agent cytotoxicity was evaluated using an MTS assay according to the manufacturer's directions (Promega).
The compounds described herein can be effective against the HCV 1b genotype. It should also be understood that the compounds can inhibit multiple genotypes of HCV. In one embodiment, compounds of Formula (I) are active against the 1a, 1b, 2a, 2b, 3a, 4a, and 5a genotypes. […] The EC50 ranges were classified into the following groups: A>10 nM; B 1-10 nM; C<1 nM. The potential cytotoxicities of each agent were analyzed in parallel by MTS assay and are greater than 3 uM for all agents.

| Compound | pEC50 |
| --- | --- |
| CC(C)[C@H](Nc1ncccn1)C(=O)N1CCC[C@H]1c1nc2cc(-c3ccc(-c4ccc5[nH]c([C@@H]6CCCN6C(=O)[C@@H](Nc6ncccn6)C(C)C)nc5c4)cc3)ccc2[nH]1 [Compound 19] | > 9.00 |
| COC(=O)N[C@H](C(=O)N1CCC[C@H]1c1nc2cc(-c3ccc4cc(-c5ccc6[nH]c([C@@H]7CCCN7C(=O)[C@@H](NC(=O)OC)C(C)C)nc6c5)ccc4c3)ccc2[nH]1)C(C)C [Compound 20] | > 9.00 |
| COC(=O)N[C@H](C(=O)N1CCC[C@H]1c1nc2cc(-c3ccc4nc(-c5ccc6[nH]c([C@@H]7CCCN7C(=O)[C@@H](NC(=O)OC)C(C)C)nc6c5)ncc4c3)ccc2[nH]1)C(C)C [Compound 21] | > 9.00 |
| O=C(Cc1ccccn1)N1CCC[C@H]1c1nc2cc(-c3ccc(-c4ccc5[nH]c([C@@H]6CCCN6C(=O)Cc6ccccn6)nc5c4)cc3)ccc2[nH]1 [Compound 22] | > 9.00 |
| COCCOC(=O)N[C@H](C(=O)N1CCC[C@H]1c1nc2cc(-c3ccc(-c4ccc5[nH]c([C@@H]6CCCN6C(=O)[C@@H](NC(=O)OCCOC)C(C)C)nc5c4)cc3)ccc2[nH]1)C(C)C [Compound 23] | < 8.00 |
| COC(=O)N[C@H](C(=O)N1CCC[C@H]1c1nc2cc(-c3ccc(-c4ccc5[nH]c([C@@H]6CCCN6C(=O)[C@@H](NC(=O)OC)C6CCCC6)nc5c4)cc3)ccc2[nH]1)C1CCCC1 [Compound 24] | > 9.00 |
| COC(=O)N[C@@H](CC(C)C)C(=O)N1CCC[C@H]1c1nc2cc(-c3ccc(-c4ccc5[nH]c([C@@H]6CCCN6C(=O)[C@H](CC(C)C)NC(=O)OC)nc5c4)cc3)ccc2[nH]1 [Compound 25] | > 9.00 |
| CC[C@H](C)[C@H](NC(=O)OC)C(=O)N1CCC[C@H]1c1nc2cc(-c3ccc(-c4ccc5[nH]c([C@@H]6CCCN6C(=O)[C@@H](NC(=O)OC)[C@@H](C)CC)nc5c4)cc3)ccc2[nH]1 [Compound 26] | > 9.00 |
| COC(=O)N[C@@H](C(=O)N1CCC[C@H]1c1nc2cc(CC=CCc3ccc4[nH]c([C@@H]5CCCN5C(=O)[C@H](NC(=O)OC)c5ccccc5)nc4c3)ccc2[nH]1)c1ccccc1 [Compound 28] | > 9.00 |
| COC(=O)N[C@@H](C(=O)N1CCC[C@H]1c1nc2cc(CCCCc3ccc4[nH]c([C@@H]5CCCN5C(=O)[C@H](NC(=O)OC)c5ccccc5)nc4c3)ccc2[nH]1)c1ccccc1 [Compound 29] | > 9.00 |
| COC(=O)N[C@@H](C(=O)N1CCC[C@H]1c1nc2cc(CC=Cc3ccc4nc([C@@H]5CCCN5C(=O)[C@H](NC(=O)OC)c5ccccc5)[nH]c4c3)ccc2[nH]1)c1ccccc1 [Compound 30] | > 9.00 |
| COC(=O)N[C@@H](C(=O)N1CCC[C@H]1c1nc2cc(CCCc3ccc4nc([C@@H]5CCCN5C(=O)[C@H](NC(=O)OC)c5ccccc5)[nH]c4c3)ccc2[nH]1)c1ccccc1 [Compound 31] | > 9.00 |
| COC(=O)N[C@@H](C(=O)N1CCC[C@H]1c1nc2cc(NC(=O)Nc3ccc4nc([C@@H]5CCCN5C(=O)[C@H](NC(=O)OC)c5ccccc5)[nH]c4c3)ccc2[nH]1)c1ccccc1 [Compound 32] | < 8.00 |
| COC(=O)N[C@H](C(=O)N1CCC[C@H]1c1nc2cc(C#Cc3ccc(-c4ccc5[nH]c([C@@H]6CCCN6C(=O)[C@@H](NC(=O)OC)C(C)C)nc5c4)cc3)ccc2[nH]1)C(C)C [Compound 33] | > 9.00 |
| COC(=O)N[C@H](C(=O)N1CCC[C@H]1c1nc2cc(CCc3ccc(-c4ccc5[nH]c([C@@H]6CCCN6C(=O)[C@@H](NC(=O)OC)C(C)C)nc5c4)cc3)ccc2[nH]1)C(C)C [Compound 34] | > 9.00 |
| COC(=O)N[C@@H](C(=O)N1CCC[C@H]1c1ncc(-c2ccc(-c3ccc4[nH]c([C@@H]5CCCN5C(=O)[C@H](NC(=O)OC)c5ccccc5)nc4c3)cc2)[nH]1)c1ccccc1 [Compound 35] | > 9.00 |
| COC(=O)N[C@@H](C(=O)N1CCC[C@H]1c1nc(-c2ccc(C#Cc3ccc4[nH]c([C@@H]5CCCN5C(=O)[C@H](NC(=O)OC)c5ccccc5)nc4c3)cc2)c[nH]1)c1ccccc1 [Compound 36] | > 9.00 |
